# Measured values from US11617726B2, “Method for preventing, treating, or ameliorating a microbial infection” (priority 2018, dated 2023).
# Where two headings read alike, the source gives them in different places.
# Experiments:
# [1] = test system: Pseudomonas aeruginosa ATCC 27853; assay: MIC determination by broth dilution method (CLSI M07-A9); assay type: cell-based; settings: Pseudomonas aeruginosa, ATCC27853, P. aeruginosa ATCC 27853, read-out: MIC
# Method: (§1) Minimum Inhibitory Concentration (MIC) is the lowest concentration of an antimicrobial agent that prevents visible growth of a microorganism in an agar or broth dilution susceptibility test. MIC of thymoquinone was determined by the broth dilution method against 33 MDR Acinetobacter baumannii strains and standard sensitive culture collection strain of Acinetobacter baumannii and Pseudomonas aeruginosa. The MIC of gentamicin was deter lined by broth dilution method against six MDR Acinetobacter baumannii strains and standard sensitive culture collection strains of Acinetobacter baumannii and Pseudomonas aeruginosa. MIC testing was performed according to the recommendations and guidelines of Clinical Laboratory Standard Institutes (CLSI M07-A9; 2012). Clinical and Laboratory Standards Institute (CLSI), “Methods for Dilution Antimicrobial Susceptibility Tests for Bacteria That Grow Aerobically; Approved Standard,” Document M07-A9, Clinical and Laboratory Standards Institute (CLSI), Wayne, Pa., USA, 2012.
# (§2) Twenty-one grams of Mueller-Hinton Broth (MHB) was suspended in 1 Liter distilled water and then boiled to dissolve the powder completely. The medium was sterilized by autoclaving at 121° C. for 15 min. After autoclaving, the medium was cooled to room temperature before use or stored in the fridge until used.
# (§3) Thymoquinone was weighed and dissolved in Dimethyl sulfoxide (DMSO) to produce a thymoquinone stock solution with a concentration of 5,120 μg/ml. Gentamicin sulfate was weighed and dissolved in water to produce a gentamicin sulfate stock solution with a concentration of 5,120 μg/ml, equivalent to gentamicin base.
# (§4) Dilutions of thymoquinone and gentamicin sulfate stock solutions were prepared volumetrically in the MHB as follows:
# (§5) One mL of original stock solution (5,120 μg/ml) was added to 9 ml sterile MHB to give the working first dilution (512 μg/mL). 12 sterile 7 mL PJ tubes were arranged in a rack in a row. Each tube contained one mL sterile MHB. Ten tubes were labeled as 128 μg/mL, 64 μg/mL, 32 μg/mL, 16 μg/mL, 8 μg/mL, 4 μg/mL, 2 μg/mL, 1 μg/mL, 0.5 μg/mL and 0.25 μg/mL. The eleventh and twelfth tubes were labeled as positive and negative control, respectively.
# (§6) The working dilution (512 μg/mL) was serially diluted to give two-fold dilutions. One mL of the working dilution (512 μg/mL) was dispensed in the first tube (labeled as 128 μg/mL) to give a concentration of 256 μg drug/mL MHB. One mL of the first tube was added to the second tube (labeled as 64 μg/mL) to give a concentration of 128 μg drug/mL MHB. One mL of the second tube was transferred to the third tube (labeled as 32 μg/mL) to give a concentration of 64 μg drug/mL MHB. One mL of the third tube was added to the fourth tube (labeled as 16 μg/mL) to give a concentration of 32 μg drug/mL MHB. One mL of the fourth tube was dispensed in the fifth tube (labeled as 8 μg/mL) to give a concentration of 16 μg drug/mL MHB. One mL of the fifth tube was dispensed in the sixth tube (labeled as 4 μg/mL) to give a concentration of 8 μg drug/mL MHB. One mL of the sixth tube was added to the seventh tube (labeled as 2 μg/mL) to give a concentration of 4 μg drug/mL MHB. One mL of the seventh tube was added to the eighth tube (labeled as 1 μg/mL) to give a concentration of 2 μg drug/mL MHB. One mL of the eighth tube was transferred to the ninth tube (labeled as 0.5 μg/mL) to give a concentration of 1 μg drug/mL MHB. One mL of the ninth tube was transferred to the tenth tube (labeled as 0.25 μg/mL) to give a concentration of 0.5 μg drug/mL MHB. The contents were mixed thoroughly by pipetting up and down three times. One mL of the content of the tenth tube was discarded.
# (§7) The inoculum suspensions (at 1-2×10^8 CFU/mL) were diluted 1:100 in MHB to obtain 1×10^6 CFU/mL. One mL of the diluted inoculum suspension (1×10^6 CFU/mL) was transferred to each tube except tube 12.
# (§8) All inoculated tubes were incubated for 16-20 hours at 37° C. aerobically. […]
# [2] = test system: Acinetobacter baumannii isolates and Acinetobacter baumannii ATCC BAA 747; assay: as above; assay type: cell-based; settings: Acinetobacter baumannii
# Method: as §1, §2, §3, §4, §5, §6, §7, §8
structure (smiles),measurement,setting,value
"CC1=CC(=O)C(C(C)C)=CC1=O [Thymoquinone, 2-isopropyl-5-methylbenzo-1,4-quinone]",MIC,[1],64 µg/mL
same,MIC,"[2]; BAA747, A. baumannii ATCC BAA 747 (standard sensitive strain), read-out: MIC",32 µg/mL
same,MIC,"[2]; BAA747, isolate AB1, read-out: MIC",32 µg/mL
same,MIC,"[2]; BAA747, isolate AB2, read-out: MIC",32 µg/mL
same,MIC,"[2]; BAA747, isolate AB3, read-out: MIC",32 µg/mL
same,MIC,"[2]; BAA747, isolate AB4, read-out: MIC",32 µg/mL
same,MIC,"[2]; BAA747, isolate AB5, read-out: MIC",32 µg/mL
same,MIC,"[2]; BAA747, isolate AB6, read-out: MIC",64 µg/mL
same,MIC,"[2]; BAA747, isolate AB7, read-out: MIC",32 µg/mL
same,MIC,"[2]; BAA747, isolate AB8, read-out: MIC",32 µg/mL
same,MIC,"[2]; BAA747, isolate AB9, read-out: MIC",32 µg/mL
same,MIC,"[2]; BAA747, isolate AB10, read-out: MIC",16 µg/mL
same,MIC,"[2]; BAA747, isolate AB11, read-out: MIC",32 µg/mL
same,MIC,"[2]; BAA747, isolate AB12, read-out: MIC",32 µg/mL
same,MIC,"[2]; BAA747, isolate AB13, read-out: MIC",32 µg/mL
same,MIC,"[2]; BAA747, isolate AB14, read-out: MIC",32 µg/mL
same,MIC,"[2]; BAA747, isolate AB15, read-out: MIC",32 µg/mL
same,MIC,"[2]; BAA747, isolate AB16, read-out: MIC",64 µg/mL
same,MIC,"[2]; BAA747, isolate AB17, read-out: MIC",64 µg/mL
same,MIC,"[2]; BAA747, isolate AB18, read-out: MIC",32 µg/mL
same,MIC,"[2]; BAA747, isolate AB19, read-out: MIC",64 µg/mL
same,MIC,"[2]; BAA747, isolate AB20, read-out: MIC",64 µg/mL
same,MIC,"[2]; BAA747, isolate AB21, read-out: MIC",32 µg/mL
same,MIC,"[2]; BAA747, isolate AB22, read-out: MIC",64 µg/mL
same,MIC,"[2]; BAA747, isolate AB23, read-out: MIC",32 µg/mL
same,MIC,"[2]; BAA747, isolate AB24, read-out: MIC",32 µg/mL
same,MIC,"[2]; BAA747, isolate AB25, read-out: MIC",32 µg/mL
same,MIC,"[2]; BAA747, isolate AB26, read-out: MIC",64 µg/mL
same,MIC,"[2]; BAA747, isolate AB27, read-out: MIC",64 µg/mL
same,MIC,"[2]; BAA747, isolate AB28, read-out: MIC",64 µg/mL
same,MIC,"[2]; BAA747, isolate AB29, read-out: MIC",64 µg/mL
same,MIC,"[2]; BAA747, isolate AB30, read-out: MIC",32 µg/mL
same,MIC,"[2]; BAA747, isolate AB31, read-out: MIC",32 µg/mL
same,MIC,"[2]; BAA747, isolate AB32, read-out: MIC",32 µg/mL
same,MIC,"[2]; BAA747, isolate AB33, read-out: MIC",32 µg/mL
